Reference: patent publication US9163256B2, “Mutant receptors and their use in a nuclear receptor-based inducible gene expression system” (priority 2004, dated 2015)

Experiments:
[1] = molecular target: CfEcR-DEF mutant A110P (Choristoneura fumiferana, UniProt O77255, A393P); assay: cell-based; settings: for Emax: NIH3T3, 40 h, read-out: Rel Max FI
Protocol: (§1) This construct was prepared in the same way as in switch 1.1 above except wild-type CfEcR-DEF was replaced with mutant CfEcR-DEF comprising a ligand binding domain comprising a substitution mutation selected from Table 1 below.
(§2) DNAs were transfected into mouse NIH3T3 cells (ATCC) as follows. Standard methods for culture and maintenance of the cells were followed. Cells were harvested and plated 96-well plates at 2,500 cells per well, in 50 μL of growth medium containing 10% fetal bovine serum (FBS). Twenty-four hours later, the cells were treated with 35 μL of serum-free growth medium containing either dimethylsulfoxide (DMSO; control) or a DMSO solution of ligand. The cells were then transfected using Superfect (Qiagen Inc.) transfection reagent. For each well, 0.625 μL of Superfect was mixed with 14.2 μL of serum-free growth medium. 0.16 μg of reporter construct and 0.04 μg of each receptor construct were added to the transfection reagent mix. The contents of the transfection mix were mixed in a vortex mixer and let stand at room temperature for 30 minutes. At the end of incubation, 15 μL of transfection mix was added to the cells. The cells were maintained at 37° C. and 5% CO2 for 48 hours in 5% FBS.
(§3) Reporter Assays: Cells were harvested 40 hours after adding ligands. 125 μL of passive lysis buffer (part of Dual-Luciferase reporter assay system from Promega Corporation) were added to each well of the […] plate. The plates were placed on a rotary shaker for 15 minutes. Twenty μL of lysate were assayed. Luciferase activity was measured using Dual-Luciferase reporter assay system from Promega Corporation following the manufacturer's instructions. Fold induction (FI) activities were calculated by dividing relative light units (“RLU”) in ligand treated cells with RLU in DMSO treated cells (untreated control).

[2] = molecular target: CfEcR-DEF mutant F109N (Choristoneura fumiferana, UniProt O77255, F392N); assay: cell-based; settings: for Emax: NIH3T3, 40 h, read-out: Rel Max FI
Protocol: as §1, §2, §3

[3] = molecular target: CfEcR-DEF mutant F109W (Choristoneura fumiferana, UniProt O77255, F392W); assay: cell-based; settings: for Emax: NIH3T3, 40 h, read-out: Rel Max FI
Protocol: as §1, §2, §3

[4] = molecular target: CfEcR-DEF mutant I51L (Choristoneura fumiferana, UniProt O77255, I334L); assay: cell-based; settings: for Emax: NIH3T3, 40 h, read-out: Rel Max FI
Protocol: as §1, §2, §3

[5] = molecular target: CfEcR-DEF mutant L132V (Choristoneura fumiferana, UniProt O77255, L415V); assay: cell-based; settings: for Emax: NIH3T3, 40 h, read-out: Rel Max FI
Protocol: as §1, §2, §3

[6] = molecular target: CfEcR-DEF mutant M125C (Choristoneura fumiferana, UniProt O77255, M408C); assay: cell-based; settings: for EC50: EC50, mutant M125C; for Emax: NIH3T3, 40 h, read-out: Rel Max FI
Protocol: as §1, §2, §3

[7] = molecular target: CfEcR-DEF mutant M125E (Choristoneura fumiferana, UniProt O77255, M408E); assay: cell-based; settings: for Emax: NIH3T3, 40 h, read-out: Rel Max FI
Protocol: as §1, §2, §3

[8] = molecular target: CfEcR-DEF mutant M125L (Choristoneura fumiferana, UniProt O77255, M408L); assay: cell-based; settings: for Emax: NIH3T3, 40 h, read-out: Rel Max FI
Protocol: as §1, §2, §3

[9] = molecular target: CfEcR-DEF mutant M125P (Choristoneura fumiferana, UniProt O77255, M408P); assay: cell-based; settings: for Emax: NIH3T3, 40 h, read-out: Rel Max FI
Protocol: as §1, §2, §3

[10] = molecular target: CfEcR-DEF mutant R95H (Choristoneura fumiferana, UniProt O77255, R378H); assay: cell-based; settings: for Emax: NIH3T3, 40 h, read-out: Rel Max FI
Protocol: as §1, §2, §3

[11] = molecular target: CfEcR-DEF mutant R95W (Choristoneura fumiferana, UniProt O77255, R378W); assay: cell-based; settings: for Emax: NIH3T3, 40 h, read-out: Rel Max FI
Protocol: as §1, §2, §3

[12] = molecular target: CfEcR-DEF mutant T52L (Choristoneura fumiferana, UniProt O77255, T335L); assay: cell-based; settings: for Emax: NIH3T3, 40 h, read-out: Rel Max FI
Protocol: as §1, §2, §3

[13] = molecular target: CfEcR-DEF mutant V96W (Choristoneura fumiferana, UniProt O77255, V379W); assay: cell-based; settings: for Emax: NIH3T3, 40 h, read-out: Rel Max FI
Protocol: as §1, §2, §3

[14] = molecular target: CfEcR-DEF mutant W238P (Choristoneura fumiferana, UniProt O77255, W521P); assay: cell-based; settings: for Emax: NIH3T3, 40 h, read-out: Rel Max FI
Protocol: as §1, §2, §3

[15] = molecular target: CfEcR-DEF mutant W238Y (Choristoneura fumiferana, UniProt O77255, W521Y); assay: cell-based; settings: for Emax: NIH3T3, 40 h, read-out: Rel Max FI
Protocol: as §1, §2, §3

[16] = molecular target: CfEcR-DEF mutant A110N (Choristoneura fumiferana, UniProt O77255, A393N); assay: cell-based; settings: for Emax: NIH3T3, 40 h, read-out: Rel Max FI
Protocol: as §1, §2, §3

[17] = molecular target: CfEcR-DEF mutant F48N (Choristoneura fumiferana, UniProt O77255, F331N); assay: GAL4-driven luciferase reporter assay in NIH3T3 cells; assay type: cell-based; settings: for Emax: NIH3T3, 40 h, read-out: Rel Max FI
Protocol: as §1, §2, §3

[18] = molecular target: CfEcR-DEF mutant M125W (Choristoneura fumiferana, UniProt O77255, M408W); assay: as above; assay type: cell-based; settings: for Emax: NIH3T3, 40 h, read-out: Rel Max FI
Protocol: as §1, §2, §3

[19] = molecular target: CfEcR-DEF mutant T52V/A110P (Choristoneura fumiferana, UniProt O77255, A393P/T335V); assay: as above; assay type: cell-based; settings: for Emax: NIH3T3, 40 h, read-out: Rel Max FI
Protocol: as §1, §2, §3

[20] = molecular target: CfEcR-DEF mutant V107I/Y127E/T52V (Choristoneura fumiferana, UniProt O77255, T335V/V390I/Y410E); assay: as above; assay type: cell-based; settings: for Emax: NIH3T3, 40 h, read-out: Rel Max FI
Protocol: as §1, §2, §3

[21] = molecular target: CfEcR-DEF mutant V128F/A110P (Choristoneura fumiferana, UniProt O77255, A393P/V411F); assay: cell-based
Protocol: as §1, §2, §3

Sequence of CfEcR-DEF mutant M125W (O77255 entry or part of it M408W): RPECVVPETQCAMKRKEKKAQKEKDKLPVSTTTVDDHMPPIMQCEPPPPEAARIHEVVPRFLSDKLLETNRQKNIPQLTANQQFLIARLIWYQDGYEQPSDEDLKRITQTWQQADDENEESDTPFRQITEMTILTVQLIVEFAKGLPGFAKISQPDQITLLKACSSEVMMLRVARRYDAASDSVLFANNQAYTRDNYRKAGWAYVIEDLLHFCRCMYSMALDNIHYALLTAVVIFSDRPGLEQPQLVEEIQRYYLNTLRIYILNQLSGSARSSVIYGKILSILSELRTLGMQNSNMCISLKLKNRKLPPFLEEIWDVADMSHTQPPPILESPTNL
Sequence of CfEcR-DEF mutant M125W (P28702 299-449, further chain): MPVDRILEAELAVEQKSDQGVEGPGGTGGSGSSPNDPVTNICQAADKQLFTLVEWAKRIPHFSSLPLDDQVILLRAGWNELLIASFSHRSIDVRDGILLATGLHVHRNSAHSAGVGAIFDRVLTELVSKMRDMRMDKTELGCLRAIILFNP
Sequence of CfEcR-DEF mutant R95H (P28702 299-449): as the sequence (P28702 299-449, further chain) above
Sequence of CfEcR-DEF mutant R95H (O77255 entry or part of it R378H): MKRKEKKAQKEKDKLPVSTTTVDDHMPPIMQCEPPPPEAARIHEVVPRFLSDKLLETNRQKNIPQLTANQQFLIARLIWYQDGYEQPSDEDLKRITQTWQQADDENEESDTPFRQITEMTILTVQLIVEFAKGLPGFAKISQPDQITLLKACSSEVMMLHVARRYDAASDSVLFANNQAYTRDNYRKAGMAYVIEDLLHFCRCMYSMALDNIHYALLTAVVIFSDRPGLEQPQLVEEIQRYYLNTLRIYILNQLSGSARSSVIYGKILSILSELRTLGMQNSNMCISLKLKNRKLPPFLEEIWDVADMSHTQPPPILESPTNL
Sequence of CfEcR-DEF mutant W238P (P28702 299-449): as the sequence (P28702 299-449, further chain) above
Sequence of CfEcR-DEF mutant W238P (O77255 entry or part of it W521P): as the sequence (O77255 entry or part of it R378H) above, with H160R, W303P counted along it
Sequence of CfEcR-DEF mutant V107I/Y127E/T52V (P28702 299-449): as the sequence (P28702 299-449, further chain) above
Sequence of CfEcR-DEF mutant V107I/Y127E/T52V (O77255 entry or part of it T335V/V390I/Y410E): as the sequence (O77255 entry or part of it R378H) above, with T117V, H160R, V172I, Y192E counted along it
Sequence of CfEcR-DEF mutant V128F/A110P (P28702 299-449, stated change not applied): as the sequence (P28702 299-449, further chain) above
Sequence of CfEcR-DEF mutant V128F/A110P (O77255 entry or part of it A393P/V411F): as the sequence (O77255 entry or part of it R378H) above, with H160R, A175P, V193F counted along it
Sequence of CfEcR-DEF mutant M125P (P28702 299-449): as the sequence (P28702 299-449, further chain) above
Sequence of CfEcR-DEF mutant M125P (O77255 entry or part of it M408P): as the sequence (O77255 entry or part of it R378H) above, with H160R, M190P counted along it
Sequence of CfEcR-DEF mutant F109N (P28702 299-449): as the sequence (P28702 299-449, further chain) above
Sequence of CfEcR-DEF mutant F109N (O77255 entry or part of it F392N): as the sequence (O77255 entry or part of it M408W) above, with F186N, W202M counted along it
Sequence of CfEcR-DEF mutant M125L (P28702 299-449): as the sequence (P28702 299-449, further chain) above
Sequence of CfEcR-DEF mutant M125L (O77255 entry or part of it M408L): as the sequence (O77255 entry or part of it R378H) above, with H160R, M190L counted along it
Sequence of CfEcR-DEF mutant W238Y (P28702 299-449): as the sequence (P28702 299-449, further chain) above
Sequence of CfEcR-DEF mutant W238Y (O77255 entry or part of it W521Y): as the sequence (O77255 entry or part of it R378H) above, with H160R, W303Y counted along it

Cc1cc(C)cc(C(=O)N(NC(=O)c2cccc(C(C)C)c2C)C(C)(C)C)c1 [RG-102362, 3,5-Dimethyl-benzoic acid N-tert-butyl-N′-(3-isopropyl-2-methyl-benzoyl)-hydrazide]
EC50 [1]: 0.77 µM
Emax [1]: 64%
EC50 [2]: 1.85 µM
Emax [2]: 40%
EC50 [3]: 1.41 µM
Emax [3]: 70%
EC50 [4]: 3.35 µM
Emax [4]: 53%
EC50 [5]: 0.29 µM
Emax [5]: 74%
EC50 [6]: ≥ 33 µM
Emax [6]: 15%
EC50 [7]: 0.83 µM
Emax [7]: 40%
EC50 [8]: > 33 µM
Emax [8]: 1%
EC50 [9]: > 33 µM
Emax [9]: 78%
EC50 [10]: 3.49 µM
Emax [10]: 62%
EC50 [11]: ~8 µM
Emax [11]: 25%
EC50 [12]: 0.33 µM
Emax [12]: 61%
EC50 [13]: 3.26 µM
Emax [13]: 38%
EC50 [14]: 0.29 µM
Emax [14]: 40%
EC50 [15]: > 33 µM
Emax [15]: 6%
EC50 [16]: 0.72 µM
Emax [16]: 86%
EC50 [17]: 1.68 µM
Emax [17]: 66%
EC50 [18]: 3.5 µM
Emax [18]: 44%
EC50 [19]: 0.32 µM
Emax [19]: 94%
EC50 [20]: < 0.01 µM
Emax [20]: 73%

CCc1cccc(C(=O)NN(C(=O)c2cc(C)cc(C)c2)C(C)(C)C)c1C [RG-101691, 3,5-Dimethyl-benzoic acid N-tert-butyl-N′-(3-ethyl-2-methyl-benzoyl)-hydrazide]
EC50 [1]: 0.67 µM
Emax [1]: 89%
EC50 [2]: 3.95 µM
Emax [2]: 85%
EC50 [3]: 0.49 µM
Emax [3]: 79%
EC50 [4]: 2.28 µM
Emax [4]: 88%
EC50 [5]: 0.66 µM
Emax [5]: 77%
EC50 [6]: ≥ 33 µM
Emax [6]: 62%
EC50 [7]: 0.98 µM
Emax [7]: 53%
EC50 [8]: > 33 µM
Emax [8]: 0%
EC50 [9]: > 33 µM
Emax [9]: 525%
EC50 [10]: 3.9 µM
Emax [10]: 96%
EC50 [11]: ~10 µM
Emax [11]: 37%
EC50 [12]: 0.21 µM
Emax [12]: 74%
EC50 [21]: ~5 µM
Emax ([21]; NIH3T3, 40 h, read-out: Rel Max FI): 8%
Rel Max FI ([21]; mutant V128F/A110P, 2400 min): 0.08
EC50 [13]: 3.61 µM
Emax [13]: 75%
EC50 [14]: 0.65 µM
Emax [14]: 91%
EC50 [15]: > 33 µM
Emax [15]: 30%
EC50 [16]: 0.88 µM
Emax [16]: 99%
EC50 [17]: 1.73 µM
Emax [17]: 88%
EC50 [18]: 4.94 µM
Emax [18]: 74%
EC50 [19]: 0.24 µM
Emax [19]: 66%
EC50 [20]: 0.02 µM
Emax [20]: 88%
